Measured values taken from the NIST ThermoML archive (doi:10.1021/acs.jced.7b00665).
Numbers after ± are expanded uncertainties.

Tests used:
[1] = Crystal; DTA
[2] = Molar enthalpy of transition or fusion; details: Crystal; DSC

In the case of `OC/C=C/c1ccccc1` [trans-cinnamyl alcohol], the Normal melting temperature [1] is reported as 32.47 ± 0.61 °C and the “Molar enthalpy of transition or fusion” value [2] is reported as 3.28 ± 0.287 kcal/mol.
